Laboratory results: paper PMC5792488, “Structural basis of the molecular ruler mechanism of a bacterial glycosyltransferase” (Nature Communications, 2018)

Tests used:
PglH [1] = target: T1, PglH (Campylobacter jejuni, UniProt Q0P9C5); assay: ([…] Å); IC50 with purified PglH; format: biochemical
T1 construct: PglH with C-terminal His10 tag

PglH [2] = target: T1, PglH; assay: crystal structure of ternary complex with synthetic LLO ([…] Å); IC50 with purified PglH; format: biochemical

T1 sequence (Q0P9C5 whole entry): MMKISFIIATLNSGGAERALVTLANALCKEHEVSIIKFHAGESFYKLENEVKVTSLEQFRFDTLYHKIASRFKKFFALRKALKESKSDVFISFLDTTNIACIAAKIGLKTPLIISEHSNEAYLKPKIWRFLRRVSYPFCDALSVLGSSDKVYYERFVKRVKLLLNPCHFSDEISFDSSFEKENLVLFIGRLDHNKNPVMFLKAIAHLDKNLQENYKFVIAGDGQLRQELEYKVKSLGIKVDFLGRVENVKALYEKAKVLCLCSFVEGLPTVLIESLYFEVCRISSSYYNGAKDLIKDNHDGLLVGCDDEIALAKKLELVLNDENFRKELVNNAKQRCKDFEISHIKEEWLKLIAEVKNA

Compound	IC50 (PglH [1]) [µM]	IC50 (PglH [2]) [µM]
CC(=O)N[C@@H]1[C@@H](O)[C@@H](O)[C@@H](CO)O[C@@H]1CP(=O)(O)OP(=O)(O)OC[C@@H]1O[C@@H](n2ccc(=O)[nH]c2=O)[C@H](O)[C@@H]1O [UDP-CH2-GalNAc]	303 ± 24	
O=c1ccn([C@@H]2O[C@H](COP(=O)(O)OP(=O)(O)O)[C@@H](O)[C@H]2O)c(=O)[nH]1 [UDP]		1020 ± 87
